Entries after “also recorded” stand apart in the source; their conditions may differ.

Experimental findings from patent US8476484B2, “Transgenic clawed frog embryos and use thereof as detectors of endocrine disrupters in the environment” (Centre National de la Recherche Scientifique (CNRS), priority 2002, dated 2013) are described below.

For experiment [1], the system named is TRE-tk-luciferase construct (rat malic enzyme TRE). In words: Somatic transgenesis with TRE-tk-luciferase in dorsal muscle of pretreated xenopus tadpoles. To be noted: tadpoles pretreated with perchlorate and T3 10^-11 M; then T3 10^-8 M for 48 hours vs control; FIG. 6. Type of experiment: in vivo.
Procedure: FIG. 6: Somatic transgenesis by injection, into the dorsal muscle of pretreated xenopus animals, of the construct TRE-tk-luciferase. The animals are pretreated for 48 hours with 10^−11 M of T3 thyroid hormone, and then rinsed for 24 hours. The animals are then transfected by injection into the dorsal muscle of 1 mg/animal of the construct TRE-tk-luciferase. The animals are then treated for 48 hours (10^−8 M) or in the absence (−T3) of thyroid hormone. Two days after treatment, the luciferase expression is measured. […] According to an alternative method, the transgenic animals according to the invention are pretreated with perchlorate for one month at 1 g/l, and are then sensitized with the test compound, such as the T3 hormone (10^−11 M), for 18 to 48 hours without food. The animals are then washed in a medium containing no T3 and are fed for 36 hours. The construct (for example TRE-tk-luciferase) is injected into the dorsal muscle of the xenopus embryo (1 mg/animal). Out of the 24 tadpoles that were pretreated and then subjected to somatic transgenesis, twelve tadpoles are treated for 48 hours with T3 thyroid hormone at 10^−8 M; the other twelve tadpoles that remain serve as a control.
For experiment [2], the system named is TRE-tk-EGFP construct (rat malic enzyme TRE). In words: Somatic transgenesis in xenopus dorsal muscle with TRE-tk-EGFP. To be noted: T3 10 nM vs -T3; detected four days later; FIG. 7. Type of experiment: in vivo. Here is the method:
FIG. 7: Somatic transgenesis by injection, into the dorsal muscle of xenopus, of the construct TRE-tk-EGFP. The animals are transfected by injection into the dorsal muscle of […] of the construct TRE-tk-EGFP. The animals are then treated for 48 hours in the presence (+T3 10 nM) or in the absence (−T3) of T3 thyroid hormone. […] The somatic transgenesis is carried out either: • by injection of 1 μl of naked DNA into the dorsal muscle of the embryo. The DNA concentration is 100 ng/μl to 5 μg/μl in 0.07 M NaCL; • by microinjection of 1 μl of DNA/PEI (polyethyleneimine) into the brain of the embryo. The DNA concentration is between 50 and 500 ng/μl in 5% glucose. 3.3. The TRE-tk-EGFP construct was injected into the dorsal muscle of a xenopus embryo ([…]). Half the animals are treated with T3 thyroid hormone at 10 nM.

Experiment [3] deals with TRE-tk-luciferase construct (rat malic enzyme TRE). Briefly: Somatic transgenesis in xenopus dorsal muscle with TRE-tk-luciferase. The format is in vivo. Particulars: T3 10^-8 M vs -T3; measured four days after treatment; FIG. 5. On the procedure:
The somatic transgenesis is carried out either: • by injection of 1 μl of naked DNA into the dorsal muscle of the embryo. The DNA concentration is 100 ng/μl to 5 μg/μl in 0.07 M NaCL; • by microinjection of 1 μl of DNA/PEI (polyethyleneimine) into the brain of the embryo. The DNA concentration is between 50 and 500 ng/μl in 5% glucose. 3.1. […] 3.2.

For experiment [4], the system named is DR4(X3)-GFP construct (consensus TRE). To be noted: thyroid hormone 10^-8 M in the water of the aquarium; FIG. 8. On the procedure:
The germinal transgenesis is carried out according to the protocol described by Kroll and Amaya (1996).

In experiment [5] the test system is xenopus stromelysin 3 promoter (several TREs) coupled to luciferase in XTC cells. In words: XTC cell transfection with the stromelysin 3/luciferase construct. The format is cell-based. Particulars: T3 10^-8 M in culture medium vs absence of T3 (basal level), FIG. 4.
Procedure: The construct is transferred into XTC cells by complexing the DNA with PEI (22 kDA, at 6 equivalents), the transfected cells are cultured in the presence (10^−8 M) or in the absence (−T3) of T3 thyroid hormone.
The transgenic constructs are tested in XTC xenopus cells in culture.
The XTC cells are obtained from carcasses of xenopus tadpoles just before metamorphosis (Pudney et al., 1973). The cells are cultured at ambient temperature, for up to 20 passages.
The cells are transfected by complexing the DNA with 22 kDa polyethyleneimine (PEI) at 6 equivalents (Ouatas et al., 1998).
The protocol makes it possible to rapidly verify the constructs and thus to verify that said constructs respond correctly to the substances, such as the T3 thyroid hormone when it is injected into the cell culture medium.

Regarding `N[C@@H](Cc1cc(I)c(Oc2ccc(O)c(I)c2)c(I)c1)C(=O)O` [T3 thyroid hormone, Tri-iodothyronine], the “expression of the reporter protein (luciferase)” value in experiment [1] and in experiment [3] was “much greater expression” each time. For the same compound, the “expression of the reporter protein (EGFP)” value in experiment [2] was “much greater expression; also recorded: bioluminescence is visible in the cells of the treated animal”. In experiment [4], the “emission of fluorescence (GFP)” value is “emission of fluorescence throughout the nervous system and in the limb buds”. For the same compound, the “expression of the luciferase reporter protein” value in experiment [5] is on record as “greater expression”.
